We go through 1 compound from US11459327B1, “Cycloalkyl and hetero-cycloalkyl inhibitors, preparation methods therefor, and use thereof” (Suzhou Zelgen Biopharmaceuticals Co., Ltd., priority 2019, dated 2022).

Assay [1] concerns NCI-H358(KRAS^G12C mutation) cells. Kind of assay: Cell assay of antiproliferative activity (Celltiter-Glo, 5 days) against NCI-H358 cells. It counts as cell-based. To be noted: 5 days incubation. In short, it runs like this: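 Cells plated overnight, then given a 10-point compound series (stock dilutions 50 μM to 0.003 μM, 100 nL added per well) and grown 5 days. Luminescence read after 10 min shaking at room temperature. IC50 from curve fitting.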

Assay [2] relates to MIA PaCa-2 tumor cells. To be noted: MIA PaCa-2 CDX, nude rats. How it is done: Pharmacodynamic Testing Evaluation of Anti-Tumor Activity (MIA PaCa-2 CDX Tumor Model)
100 uL suspension containing 5×10^6 MIA PaCa-2 tumor cells was subcutaneously injected into the right posterior abdomen of nude rats. The health of the rat was monitored daily. Measurements were started when the tumor grew palpable. The tumor volume calculation formula was adopted: 0.5×L×W^2, where L and W represent tumor length and width, respectively. The tumor grew to ˜200 mm^3, the rats were randomly divided into groups. Rats were intragastrically administrated the corresponding dose (7.5 mg/Kg) of the compound's CMC-Na suspension every day, and their general status was monitored at the same time. The tumor was measured 3 times a week, and the weight was measured twice a week.

Assay [3] concerns NCI-H358 tumor cells. Kind of assay: Pharmacodynamic testing evaluation of anti-tumor activity (H358 CDX tumor model). It counts as in vivo. The conditions noted are these: nude rats. How it is done:
Pharmacodynamic Testing Evaluation of Anti-Tumor Activity (11358 CDX Tumor Model)
100 uL suspension containing 5×10^6 NCI-H358 tumor cells was subcutaneously injected into the right posterior back of nude rats. The health of the rat was monitored daily. Measurements were started when the tumor grew palpable.

Setting [4] is: 7.5 mg/Kg intragastrically every day, Day 20.
[5] abbreviates: 30 mg/Kg intragastrically every day, Day 20.

Molecules are shown by their SMILES.

What is called IC50 is the concentration that inhibits the measured activity by half. A lower IC50 goes with inhibition by little substance. `C=C(F)C(=O)N1CCN(c2nc(OCC3(CN(C)C)CC3)nc3c2CCN(c2cccc4cccc(Cl)c24)C3)C[C@@H]1CC#N` [Example 27] registered a concentration for half-maximal inhibition (IC50) in assay [1] of 14 nM. The “% TGI” value is given as 66.6% in assay [2] (setting [4]) and 89.8% in assay [3] (setting [5]). Moreover, the “% Tumor Growth” value in assay [2] (setting [4]) came to 145.4%; in assay [3] (setting [5]) it was 182%. Further, the “TV Day 0” value was found to be 197 mm^3 in assay [2] (Day 0 (at grouping), 7.5 mg/Kg intragastrically every day) and 209 mm^3 in assay [3] (Day 0 (at grouping), 30 mg/Kg intragastrically every day). Besides, the “TV Day 20” value in assay [2] (Day 20, 7.5 mg/Kg intragastrically every day) was found to be 518 mm^3; in assay [3] (Day 20, 30 mg/Kg intragastrically every day) it was 471 mm^3.
